Experimental data taken from US20230331815A1 (priority 2020, published 2023).

Legend:
[1] = system: SARS-CoV-2; conditions: cited from earlier work
[2] = system: HSPG receptor; assay: hLF cell membrane localization, confocal microscopy of VeroE6/T cells; assay type: cell-based, African green monkey; conditions: co-incubation of hLF and heparin
Experimental: To visualize cell membrane localization of human lactoferrin (hLF), VeroE6/T cells (0.75×10^5 cells/well) were chilled at 4° C. for 1 hr, incubated with 2.5 µM of hLF. Cells were washed, fixed using 4% PFA (Invitrogen), stained with anti-hLF antibody, and fluorescent image was taken under confocal microscope (FIG. 10, middle row). Cell nuclei were visualized using DAPI (FIG. 10, bottom row). To visualize the cell surface and nuclei at the same time, the confocal images above (i.e., FIG. 10, middle and bottom rows) were merged and are presented in FIG. 10, top row. […] To see the effect of heparin on the binding of hLF to the cell surface (specifically the HSPG receptor), cells were co-incubated with hLF and heparin (H), and the confocal image was taken (FIG. 10, right column).

In the case of Ivermectin, the IC50 [1] is listed as 2200 to 2800 nM.

In the case of heparin [reference compound], the “effect on binding of hLF to the cell surface HSPG receptor” value [2] is reported as “inhibited”.
